The source of these data is patent US20250084087A1, “BICYCLIC HETEROCYCLES AS MRGPRX2 ANTAGONISTS” (Incyte Corporation, priority 2023, published 2025).

What all share (format): cell-based
The target of assay [1] is T1, MRGPRX2 (Homo sapiens, UniProt Q96LB1).
T1 sequence (Q96LB1 1-330): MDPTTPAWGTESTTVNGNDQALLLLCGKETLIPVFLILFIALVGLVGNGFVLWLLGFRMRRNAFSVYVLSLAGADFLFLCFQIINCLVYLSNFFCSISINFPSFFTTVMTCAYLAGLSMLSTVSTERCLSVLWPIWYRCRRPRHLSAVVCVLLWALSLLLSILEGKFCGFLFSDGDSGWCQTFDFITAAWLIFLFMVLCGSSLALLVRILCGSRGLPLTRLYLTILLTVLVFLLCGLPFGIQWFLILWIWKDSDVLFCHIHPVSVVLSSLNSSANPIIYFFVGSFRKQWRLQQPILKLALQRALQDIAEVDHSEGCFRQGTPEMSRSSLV
Kind of assay: MRGPRX2 FLIPR calcium mobilization assay. The arrangement: host or cells: CHO-K1. The note with it: CHO-K1 cells stably expressing human MRGPRX2; Ca2+ release; agonist Cortistatin-14 at EC80. Here is the method:
Example A. MRGPRX2 FLIPR Calcium Mobilization Assay
Chinese hamster ovary (CHO-K1) cells stably expressing human MRGPRX2 were purchased from Genescript (Piscataway, NJ). The cells were maintained in culture medium (Ham's F-12K) containing 10% (v/v) FBS, 200 μg/mL Zeocin, 100 units/mL penicillin G and 100 μg/mL streptomycin (Life Technologies, Carlsbad, CA). For the assay, the cells were harvested and resuspended with culture medium without Zeocin before plating at 8000 cells per well in 20 μL in 384-well black clear bottom cell culture plates (VWR, Radnor, PA). After 24 hour culture at 37° C. and 5% CO2, the cells were loaded with 20 μL/well of calcium dye (FLIPR Calcium 6 Assay Kit, Molecular Devices, San Jose, CA) diluted in loading buffer (1× Hank's Balanced Salt Solution (HBSS), 5 mM probenecid, 20 mM 4-(2-hydroxyethyl)-1-piperazineethanesulfonic acid (HEPES), pH 7.4, VWR, Radnor, PA) followed with 45 min. incubation at 37° C. and 40 min. at r.t. in the dark. Cells were then treated with the addition of 10 uL/well test compounds with a range of increasing concentrations diluted in the assay buffer (1×HBSS, 20 mM HEPES, pH 7.4, VWR, Radnor, PA) with FLIPR Penta (Molecular Devices. San Jose, CA) and incubated for 30 min. at r.t. Ca^2+ release was measured with FLIPR Penta with 10 seconds basal fluorescence measurement, then 12.5 μL of 5× agonist Cortistatin-14 (Tocris, Minneapolis, MN) at final concentration corresponding to the EC80 were added followed with continued fluorescence signal monitoring for an additional 110 seconds. The base line adjusted (median of first 10s base line) max value of the Relative Fluorescence Unit (RFU) was plotted against compound concentrations. Wells with no compound were served as the positive controls, and wells with high concentration of reference antagonist were used as negative controls. IC50 curves were globally fitted with 3- or 4-parameter Hill equation in a Genedata Screener (Genedata Basel, Switzerland).

The target of assay [2] is T1, MRGPRX2. Briefly: MRGPRX2 IP1 HTRF assay. The arrangement: host or cells: CHO-K1. The note with it: CHO-K1 cells stably expressing human MRGPRX2; IP1 accumulation; agonist Cortistatin 14 1 μM. In short, it runs like this:
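CHO-K1 cells stably expressing human MRGPRX2, preincubated with compound 1 h at 37 °C, then stimulated with 1 μM Cortistatin 14 for 1 h. IP1 measured by HTRF against standard curve, normalized to DMSO and reference antagonist controls; IC50 from 3- or 4-parameter Hill fit.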

Assay [3] addresses T1, MRGPRX2. Briefly: MRGPRX2 β-Arrestin recruitment assay (PathHunter). The settings on record: PathHunter CHO-K1 MRGPRX2 β-Arrestin cell line; agonist Cortistatin 14 0.25 μM. Details: host or cells: CHO-K1 (PathHunter). The essentials:
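CHO-K1 PathHunter cells co-expressing ProLink-tagged MRGPRX2 and enzyme-acceptor-tagged β-arrestin were preincubated with compound 1 h at 37° C., then stimulated with cortistatin-14 (0.25 μM final) for 90 min. Enzyme-complementation luminescence read after 1 h detection; data normalized to DMSO and reference antagonist, IC50 from 3- or 4-parameter Hill fit.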

On to `NS(=O)(=O)N1CCC(CNc2nc(Cl)cc3nc(C(F)(F)F)cn23)(c2ccccc2)CC1` [Example 5, 4-(((7-Chloro-2-(trifluoromethyl)imidazo[1,2-c]pyrimidin-5-yl)amino)methyl)-4-phenylpiperidine-1-sulfonamide], for which the IC50 on MRGPRX2 [1] and on MRGPRX2 [2] was 0.1 to 100 nM each time.
For `Cc1cc(NCC2(c3ccccc3)CCN(C(N)=O)CC2)n2nc(C(F)(F)F)nc2n1` [Example 7, 4-(((5-Methyl-2-(trifluoromethyl)-[1,2,4]triazolo[1,5-a]pyrimidin-7-yl)amino)methyl)-4-phenylpiperidine-1-carboxamide], the IC50 lay within 0.1 to 100 nM at MRGPRX2 [1] and 100 to 1000 nM at MRGPRX2 [2].
For `NC(=O)N1CC(CNc2cc(C(F)(F)F)nc3cc(C(F)(F)F)nn23)(n2cc(F)cn2)C1` [Example 10, 3-(((2,5-Bis(trifluoromethyl)pyrazolo[1,5-a]pyrimidin-7-yl)amino)methyl)-3-(4-fluoro-1H-pyrazol-1-yl)azetidine-1-carboxamide], the IC50 on MRGPRX2 [1] and on MRGPRX2 [2] was 0.1 to 100 nM throughout.
As to `NS(=O)(=O)N1CC(CNc2cccc3nc(C(F)(F)F)nn23)(n2cc(F)cn2)C1` [Example 11, 3-(4-Fluoro-1H-pyrazol-1-yl)-3-(((2-(trifluoromethyl)-[1,2,4]triazolo[1,5-a]pyridin-5-yl)amino)methyl)azetidine-1-sulfonamide], the IC50 at MRGPRX2 [1] and on MRGPRX2 [2] was 0.1 to 100 nM each time.
On to `NC(=O)N1CC(CNc2cccc3nc(C(F)(F)F)nn23)(n2cc(F)cn2)C1` [Example 12, 3-(4-Fluoro-1H-pyrazol-1-yl)-3-(((2-(trifluoromethyl)-[1,2,4]triazolo[1,5-a]pyridin-5-yl)amino)methyl)azetidine-1-carboxamide], for which the figures for the IC50 on MRGPRX2 [1] and on MRGPRX2 [2] were 0.1 to 100 nM and 100 to 1000 nM, respectively.
As for `CNC(=O)N1CCC(CNc2cccc3nc(C(F)(F)F)nn23)(c2ccccc2)CC1` [Example 13, N-Methyl-4-phenyl-4-(((2-(trifluoromethyl)-[1,2,4]triazolo[1,5-a]pyridin-5-yl)amino)methyl)piperidine-1-carboxamide], the IC50 at MRGPRX2 [1] and on MRGPRX2 [2] was 0.1 to 100 nM each time.
On to `COC(=O)N1CCC(CNc2cc(C(F)(F)F)nc3cc(C(F)(F)F)nn23)(c2ccccc2)CC1` [Example 14, Methyl 4-(((2,5-bis(trifluoromethyl)pyrazolo[1,5-a]pyrimidin-7-yl)amino)methyl)-4-phenylpiperidine-1-carboxylate], for which the 50% inhibitory concentration (IC50) at MRGPRX2 [1] is 0.1 to 100 nM; on MRGPRX2 [2] it was 100 to 1000 nM.
In the same order, the values of `CNC(=O)N1CCC(CNc2cc(C(F)(F)F)nc3cc(C(F)(F)F)nn23)(c2ccccc2)CC1` [Example 15, 4-(((2,5-Bis(trifluoromethyl)pyrazolo[1,5-a]pyrimidin-7-yl)amino)methyl)-N-methyl-4-phenylpiperidine-1-carboxamide] are 0.1 to 100 nM and 0.1 to 100 nM.
In the same order, the values of `NC(=O)N1CCC(CNc2cc(C(F)(F)F)nc3cc(C(F)(F)F)nn23)(c2ccccc2)CC1` [Example 16, 4-(((2,5-Bis(trifluoromethyl)pyrazolo[1,5-a]pyrimidin-7-yl)amino)methyl)-4-phenylpiperidine-1-carboxamide] are 0.1 to 100 nM and 0.1 to 100 nM.
On the same counts, the results for `CN1CCC(CNc2cc(C(F)(F)F)nc3cc(C(F)(F)F)nn23)(c2ccccc2)CC1` [Example 17, N-((1-Methyl-4-phenylpiperidin-4-yl)methyl)-2,5-bis(trifluoromethyl)pyrazolo[1,5-a]pyrimidin-7-amine] are 0.1 to 100 nM and 0.1 to 100 nM.
With `Cn1nc(N2CCC(CNc3cc(C(F)(F)F)nc4cc(C(F)(F)F)nn34)(c3ccc(F)cc3)CC2)ccc1=O` [Example 40, 6-(4-(((2,5-Bis(trifluoromethyl)pyrazolo[1,5-a]pyrimidin-7-yl)amino)methyl)-4-(4-fluorophenyl)piperidin-1-yl)-2-methylpyridazin-3(2H)-one], the half-inhibitory concentration (IC50) on MRGPRX2 [1] and at MRGPRX2 [3] was 0.1 to 100 nM throughout.
With `Cn1cc(N2CC(CNc3cc(C(F)(F)F)nc4cc(C(F)(F)F)nn34)(c3ccc(F)cc3)C2)nn1` [Example 46, N-((3-(4-Fluorophenyl)-1-(1-methyl-1H-1,2,3-triazol-4-yl)azetidin-3-yl)methyl)-2,5-bis(trifluoromethyl)pyrazolo[1,5-a]pyrimidin-7-amine], the IC50 at MRGPRX2 [1] and at MRGPRX2 [3] was 0.1 to 100 nM each time.
Turning to `NC(=O)c1cccc(N2CC(CNc3cc(C(F)(F)F)nc4cc(C(F)(F)F)nn34)(c3ccc(F)cc3)C2)n1` [Example 47, 6-(3-(((2,5-Bis(trifluoromethyl)pyrazolo[1,5-a]pyrimidin-7-yl)amino)methyl)-3-(4-fluorophenyl)azetidin-1-yl)picolinamide], the IC50 on MRGPRX2 [1] and at MRGPRX2 [3] was 0.1 to 100 nM each time.
With `CN1CC[C@@H]1C(=O)N1CCC(CNc2cc(C(F)(F)F)nc3cc(C(F)(F)F)nn23)(c2ccc(F)cc2)CC1` [Example 50, (R)-(4-(((2,5-Bis(trifluoromethyl)pyrazolo[1,5-a]pyrimidin-7-yl)amino)methyl)-4-(4-fluorophenyl)piperidin-1-yl)(1-methylazetidin-2-yl)methanone], the half-maximal inhibitory concentration (IC50) on MRGPRX2 [1] and on MRGPRX2 [3] was 0.1 to 100 nM in each case.
Turning to `O=C(CN1CCC1)N1CCC(CNc2cc(C(F)(F)F)nc3cc(Br)nn23)(c2ccc(F)cc2)CC1` [Example 60, 2-(Azetidin-1-yl)-1-(4-(((2-bromo-5-(trifluoromethyl)pyrazolo[1,5-a]pyrimidin-7-yl)amino)methyl)-4-(4-fluorophenyl)piperidin-1-yl)ethan-1-one], the IC50 on MRGPRX2 [1] and at MRGPRX2 [3] was 0.1 to 100 nM each time.
Turning to `O=C(NC1CC1)N1CC(CNc2cc(C(F)(F)F)nc3cc(C(F)F)nn23)(c2ccc(F)cc2)C1` [Example 63, N-Cyclopropyl-3-(((2-(difluoromethyl)-5-(trifluoromethyl)pyrazolo[1,5-a]pyrimidin-7-yl)amino)methyl)-3-(4-fluorophenyl)azetidine-1-carboxamide], the IC50 on MRGPRX2 [1] and at MRGPRX2 [3] was 0.1 to 100 nM throughout.
Turning to `N#CCCNC1CCC(CNc2cc(C(F)(F)F)nc3cc(Br)nn23)(c2ccccc2)CC1` (stereo not shown) [Example 81, 3-((4-(((2-Bromo-5-(trifluoromethyl)pyrazolo[1,5-a]pyrimidin-7-yl)amino)methyl)-4-phenylcyclohexyl)amino)propanenitrile], the IC50 on MRGPRX2 [1] and on MRGPRX2 [3] was 0.1 to 100 nM in each case.
As to `FC(F)(F)c1cc(NCC2(c3ccccc3)CC=CC2)n2nc(Br)cc2n1` [Example 82, 2-Bromo-N-((1-phenylcyclopent-3-en-1-yl)methyl)-5-(trifluoromethyl)pyrazolo[1,5-a]pyrimidin-7-amine], the IC50 at MRGPRX2 [1] and at MRGPRX2 [3] was 0.1 to 100 nM in each case.
Turning to `CNC1CCC(CNc2cc(C(F)(F)F)nc3cc(Br)nn23)(c2ccccc2)CC1` (stereo not shown) [Example 83, 2-Bromo-N-((4-(methylamino)-1-phenylcyclohexyl)methyl)-5-(trifluoromethyl)pyrazolo[1,5-a]pyrimidin-7-amine], the IC50 on MRGPRX2 [1] and at MRGPRX2 [3] was 0.1 to 100 nM throughout.
In the case of `CC(=O)N(C)C1CCC(CNc2cc(C(F)(F)F)nc3cc(Br)nn23)(c2ccccc2)CC1` (stereo not shown) [Example 85, N-(4-(((2-Bromo-5-(trifluoromethyl)pyrazolo[1,5-a]pyrimidin-7-yl)amino)methyl)-4-phenylcyclohexyl)-N-methylacetamide], the IC50 on MRGPRX2 [1] and at MRGPRX2 [3] was 0.1 to 100 nM in each case.
